The results in this text go back to US20210358575A1, “A METHOD FOR DETERMINING THE EFFICACY OF TREATMENT WITH A COMBINATION OF DRUGS IN A SUBJECT DIAGNOSED WITH A DISEASE AND A METHOD FOR CLASSIFYING THE UTILITY OF DRUG COMBINATIONS IN TREATMENT OF SAID SUBJECT” (priority 2018, published 2021).

Assay [1] deals with bone marrow samples of multiple myeloma (MM) patients. The assay can be described thus: Ex vivo test of single drugs, EC50 compared with population distribution, multiple myeloma samples. In kind it is cell-based, human. Here is the method: (§1) Bone marrow samples were obtained from three adult patients diagnosed with MM (VIVIA-PMMM010431, VIVIA-PMMM060111 and VIVIA-PMMM130061) and three adult patients diagnosed with ALL (VIVIA-PMALL07002, VIVIA-PMALL04001 and VIVIA-PMALL09001). Following the same experimental design as described for examples 1 and 3, said bone marrow samples were incubated for 48 h in well plates containing the single drugs shown in FIGS. 21 to 26. After the measurement of pathological populations by flow cytometry, pharmacological response parameters were estimated using population pharmacodynamic models. The most representative parameter of drug potency, the EC50, was used for a comparative analysis of the results provided by said bone marrow samples with respect to the statistical distribution of the same parameter observed in a population of samples and stored in the database. Such populations varied in size depending on the drug, being always over one hundred individuals in the case of MM and between 15 and 21 individuals in the case of ALL.

Assay [2] deals with bone marrow samples of acute lymphoid leukemia (ALL) patients. Briefly: Ex vivo test of single drugs, EC50 compared with population distribution, acute lymphoid leukemia samples. In kind it is cell-based, human. Here is the method:
as §1

The mark [3] stands for this setting: MM patient VIVIA-PMMM010431, 48 h.
Setting [4] is: MM patient VIVIA-PMMM130061, 48 h.
The mark [5] stands for this setting: MM patient VIVIA-PMMM060111, 48 h.
Where [6] appears, read: ALL patient VIVIA-PMALL07002, 48 h.
Where [7] appears, read: ALL patient VIVIA-PMALL09001, 48 h.
[8] abbreviates: ALL second line patient VIVIA-PMALL04001, 48 h.

In the case of `Cn1c(CCCC(=O)O)nc2cc(N(CCCl)CCCl)ccc21` [bendamustine], in assay [1] (setting [3]), the “EC50 relative to population distribution” value is given as “below the 10th percentile” and the ex vivo activity result is “potent activity”. Also, the ex vivo activity entry in assay [1] (setting [4]) is “very weak activity”.
Turning to `CC(C)C[C@H](NC(=O)[C@H](Cc1ccccc1)NC(=O)c1cnccn1)B(O)O` [bortezomib], in assay [1] (setting [3]), the “EC50 relative to population distribution” value is on record as “below the first quartile”. The figures for the ex vivo activity result in assay [1] (setting [3]), in assay [1] (setting [5]) and in assay [1] (setting [4]) were “potent activity”, “intermediate activity” and “very weak activity”, respectively.
Take `O=P1(N(CCCl)CCCl)NCCCO1` (stereo not shown) [cyclophosphamide]: the ex vivo activity result in assay [2] (setting [6]) is listed as “intermediate or high activity”.
On to `COc1cccc2c1C(=O)c1c(O)c3c(c(O)c1C2=O)C[C@@](O)(C(C)=O)C[C@@H]3O[C@H]1C[C@H](N)[C@H](O)[C@H](C)O1` [daunorubicin], for which the ex vivo activity entry in assay [2] (setting [6]) is “intermediate or high activity”; in assay [2] (setting [7]), “high activity”; in assay [2] (setting [8]), “low activity or resistance”.
For `C[C@@H]1C[C@H]2[C@@H]3CCC4=CC(=O)C=C[C@]4(C)[C@@]3(F)[C@@H](O)C[C@]2(C)[C@@]1(O)C(=O)CO` [dexamethasone], the ex vivo activity entry in assay [1] (setting [5]) is given as “no activity”.
As to `O=C1c2c(O)ccc(O)c2C(=O)c2c(NCCNCCO)ccc(NCCNCCO)c21` [mitoxantrone], in assay [2] (setting [8]), the ex vivo activity result is listed as “low activity or resistance”.
In the case of `C[C@]12C=CC(=O)C=C1CC[C@@H]1[C@@H]2[C@@H](O)C[C@@]2(C)[C@H]1CC[C@]2(O)C(=O)CO` [prednisolone], the ex vivo activity result in assay [2] (setting [6]) is “intermediate or high activity”; in assay [2] (setting [7]), “high activity”; in assay [1] (setting [3]) it was “potent activity”. The “EC50 relative to population distribution” value in assay [1] (setting [3]) is “below the 10th percentile”.
As for `O=C1CCC(N2C(=O)c3ccccc3C2=O)C(=O)N1` (stereo not shown) [thalidomide], in assay [1] (setting [4]), the ex vivo activity result is “very weak activity”.
As for `CC[C@]1(O)C[C@H]2CN(CCc3c([nH]c4ccccc34)[C@@](C(=O)OC)(c3cc4c(cc3OC)N(C=O)[C@H]3[C@@](O)(C(=O)OC)[C@H](OC(C)=O)[C@]5(CC)C=CCN6CC[C@]43[C@@H]65)C2)C1` [vincristine], the ex vivo activity result in assay [2] (setting [6]) was “intermediate or high activity”; in assay [2] (setting [7]) it was “high activity”; in assay [2] (setting [8]), “low activity or resistance”.
On to L-asparaginase, for which the ex vivo activity entry in assay [2] (setting [6]) was “intermediate or high activity”.
